# Assay results reported in patent US20220409696A1, “Heparin-Associated Polypeptides and Uses Thereof” (Juvena Therapeutics, Inc., priority 2021, published 2022).
# What was measured:
# human myoblast cells [1] = experiment: Human myoblast differentiation (% eMyHC area), IGF2 and/or sodium butyrate; assay type: cell-based
# Method: Human myoblast cells were treated with either PBS (vehicle), IGF2 (15 ng/mL), sodium butyrate, or IGF2 and sodium butyrate. Fresh media was added every 24 hours. After 96 hours, cells were pulsed for 2-5 hours with EdU (30 uM), ethanol fixed, stained with Hoescht 3342, immunostained for proliferation—as measured by the percent of cells staining positive for EdU (% EdU)-, and immunostained for differentiation—as measured by the increase in cellular area staining positive for embryonic myosin heavy chain (% eMyHC) relative to the negative controls, which received media and vehicle only. The total area of eMyHc positive cells was analyzed, and treated cells were compared to cells treated with the vehicle alone. […] Significance was determined by a p-value less than 0.05 by the one-way ANOVA Tukey Honest Significant Difference test.
# FIG. 3C Bar graph quantitation of % Area eMyHC+ human myoblast in response to indicated treatment compared to IGF2 (15 ng/mL). Myoblast were cultured 96 h in the presence of IGF2 at indicated dose. Fresh media and IGF2 was added every 24 h.
# Human myoblast cells were treated with either PBS (vehicle), IGF2 (15 ng/mL), sodium butyrate, or IGF2 and sodium butyrate. Fresh media was added every 24 hours. After 48 hours, cells were pulsed for 2-5 hours with EdU (30 uM), ethanol fixed, stained with Hoescht 3342, immunostained for proliferation […] as measured by the percent of cells staining positive for EdU (% EdU)-, and immunostained for differentiation—as measured by the increase in cellular area staining positive for embryonic myosin heavy chain (% eMyHC) relative to the negative controls, which received media and vehicle only.
# Significance was determined by a p-value less than 0.05 by the one-way ANOVA Tukey Honest Significant Difference test.
# DM1 human myoblast = experiment: Gene expression fold change in DM1 human myoblast; assay type: cell-based; conditions: 48 h; BMP7 50 ng/mL, Butyrate 100 nM, IGF2 200 ng/mL
# Method: Myoblasts were cultured 48 h in the presence of factors (BMP7 50 ng/mL, Butyrate 100 nM, IGF2 200 ng/mL).
# Myoblasts were cultured 96 h in the presence of factors (IGF2 200 ng/mL). […] Myoblasts were cultured 48 h in the presence of factors (IGF2 200 ng/mL).
# RNA was isolated from each well (RNeasy Mini Kit, Qiagen) and cDNA was obtained by reverse-transcription (High Capacity Reverse Transcription Kit, Thermo Fisher Scientific). Real-time quantitative PCR was performed using QuantStudio3 (Thermo Fisher).
# IGF2 was tested individually for its ability to promote proliferation and/or fusion of human muscle progenitor cells from an individual with myotonic dystrophy type 1 (hMD)—a muscular dystrophy caused by mutations in the DMPK1 gene. The effect of IGF2 on myogenic activity was assayed in biological triplicate across a range of concentrations centered around expected physiological levels by adding each factor to hMD myoblasts for 72 hours with daily media changes (DMEM+2% horse serum) and a second pulse of factors at the first media change. After 72 or 96 hours, cells were pulsed for 2-5 hours with EdU (30 uM), ethanol fixed, stained with Hoescht 3342, immunostained for proliferation—as measured by the percent of cells staining positive for EdU (% EdU)-, and immunostained for differentiation—as measured by the increase in cellular area staining positive for embryonic myosin heavy chain (% eMyHC) relative to the negative controls, which received media and vehicle only. Wells were imaged on a Keyence BZ-100 at 4×, the images quantified in Cell Profiler, and the statistics were computed in R. Additionally, RNA was extracted from myoblast and select transcript abundances quantified by qPCR.
# Mouse myoblasts = experiment: Mouse myoblast fusion index with sodium butyrate; assay type: cell-based; conditions: 48 h
# Method: Mouse myoblasts were treated with PBS or sodium butyrate at concentrations 0.1 nM, 1 nM, and 10 nM. Myoblasts were cultured for 48 hours, with fresh media added every 24 hours. Cells were pulsed for 2-5 hours with EdU (30 uM), ethanol fixed, stained with Hoescht 3342, immunostained for proliferation—as measured by the percent of cells staining positive for EdU (% EdU)-, and immunostained for differentiation—as measured by the increase in cellular area staining positive for embryonic myosin heavy chain (% eMyHC) relative to the negative controls, which received media and vehicle only. […] Significance was determined by a p-value less than 0.05 by the one-way ANOVA Tukey Honest Significant Difference test.
# FIG. 3A: Bar graph of fusion index in response to sodium butyrate (NaBut) compared to vehicle. Myoblast were cultured 48 h in the presence of NaBut at indicated dose. Fresh media and NaBut were added every 24 h. Mean∓S.D. Table with quantitation of fusion index and p-values also shown. (*p<0.05 by Student's Two-tailed T-test, n=3−5)
# [2] = Backbone cleavage on expression from CHO cells (reducing SDS-PAGE, Western blot)
# Method: The amino acid backbone of IGF2 is cleaved when expressed from Chinese Hamster Ovary (CHO) cells (FIG. 13A) as visualized on a reducing SDS-PAGE and Western blot (FIG. 13B). The CHO cells were grown in a 37° C. incubator with a humidified atmosphere of 8% CO2 on an orbital shaker platform with a shaking speed 125 rpm to reach 4E6 cells/mL, followed by transferring the calculated volume of cells to fresh, pre-warmed ExpiCHO™ Expression Medium in a shake flask. Incubated flasks in a 37° C. incubator with a humidified atmosphere of 8% CO2 shook on an orbital shaker platform until cultures reached a density of 4×106-6×10^6 viable cells/mL. After mixing each plasmid with 100 ul SFM in a microtube; ExpiFectamine (8 ul×10.5=84 ul) with OptiPro medium (92 ul×10.5=966 ul) in a microtube; adding 100 ul into the plasmid tube and mix by pipetting; After 5 min, add 200 ul into each well and swirl to mix. mix enhancer (15×10.2=153 ul) with feed (600×10.2=6.12 ml), add 615 ul into each well. Culture supernatant collected at intervals was spun down at low speed and high speed, then frozen at −80 deg. Aliquots were analyzed for protein concentration by nanodrop, and then an equivalent amount loaded onto 4-12% SDS-PAGE gels for molecular weight distribution analysis. […]
# human myoblast cells [3] = experiment: Differentiation of human myoblast cells, MyHC immunostaining; assay type: cell-based; conditions: for % MyHC: 96 hours with daily media change; for percentage area of MyHC compared with vehicle control: 96 hours, One-Way ANOVA Tukey
# Method: (§1) FIG. 1A: The suspension CHO cells were transiently transfected with the IGF2-hFcm encoding plasmid. IGF2-hFcm was affinity-purified by Protein A membrane column. The purified IGF2-hFcm was added into the culture of human myoblast cells for 96 hours. Myosin heavy chain (MyHC) was immunostained and imaged by a fluorescence microscope.
# as §1, with “1B:” for “1A:”, “IGF2-LhFc4” for “IGF2-hFcm”, “hours with daily media change.” for “hours.”
# as §1, with “2A:” for “1A:”, “HSA-L-IGF2R61A” for “IGF2-hFcm”, “hours with daily media change.” for “hours.”
# Suspension CHO cells were transiently transfected with the IGF2-hFcm encoding plasmid. After four days, the culture supernatants were collected and IGF2-hFcm was affinity-purified by Protein A membrane column. The purified IGF2-hFcm was added into the culture of human myoblast cells. Myosin heavy chain (MyHC) was immunostained and imaged by a fluorescent microscope. After quantification of the stained MyHC, the percentage area of MyHC was calculated as the percent of pixels within the field that are illuminated above background in the stained channel. […] Significance was determined by a p-value less than 0.05 by the one-way ANOVA Tukey Honest Significant Difference test.
# [4] = system: healthy human muscle precursors from person; experiment: In vitro myogenesis assay, healthy human muscle precursors; assay type: cell-based
# Method: (§2) Human muscle progenitor cells (early passage myoblasts) were cultured and expanded in growth medium: Ham's F-10 (Gibco), 20% Bovine Growth Serum (Hyclone), 5 ng/mL FGF2 and 1% penicillin-streptomycin on Matrigel coated plates (1:300 matrigel: PBS), at 37° C. and 5% CO2. For experimental conditions, cells were plated at 40,000 cells/well on Matrigel coated 8-well chamber slides in 250-500 μL medium per well (1:100 matrigel: PBS) in human fusion medium: DMEM (Gibco)+2% horse serum (Hyclone). One hour after plating, human myoblasts were treated with 50% respective media: […] were cultured for 24 hours in the above conditions, at 37° C. in 10% CO2 incubator. BrdU (300 μM) in DMSO was added for 2 hours prior to fixation with cold 70% ethanol and stored at 4° C. until staining.
# (§3) Following permeabilization in PBS+0.25% Triton X-100, antigen retrieval was performed. Primary staining was performed with primary antibodies including: a species-specific monoclonal antibody for mouse anti-embryonic Myosin Heavy Chain (eMyHC, hybridoma clone 1.652, Developmental Studies Hybridoma Bank) and Rat-anti-BrdU (Abcam Inc. ab6326). […]
# rhIGFBP3 = rhIGFBP3 (Homo sapiens, UniProt P17936); experiment: Interaction with rhIGFBP3 by size exclusion chromatography (HPLC); assay type: binding; conditions: 1:1 stoichiometric mixture
# Text: In physiological conditions IGF2 will bind IGF binding proteins (IGFBPs). The purpose of this study was to determine if mutant sequences of IGF2 interact with IGFBPs. Retention time across a size exclusions chromatography column is proportional to the size of the molecule. Thus molecular interactions can be ascertained by a corresponding change in retention time on a size exclusions chromatography column.
# [5] = system: human DM1 muscle precursors from person; experiment: In vitro myogenesis assay, human DM1 muscle precursors; assay type: cell-based; conditions: equimolar concentrations across a range of concentrations
# Method: as §2, §3
# [6] = Pharmacokinetics after intravenous injection in mice; assay type: in vivo
# Method: Murine pharmacokinetics (PK) represents the absorption, distribution, metabolism, and elimination of drugs from the body. The pharmacokinetic profile of the therapeutic polypeptides were determined in mice (10-12 weeks old). Mice were fed ad libitum and housed under controlled conditions of lighting (12-hour light/12-hour dark) and temperature (22-24° C.). Mice were allowed to acclimate for 3 days prior to the initiation of the experiment. Intravenous (IV) injection in 10-12 weeks old mice. Engineered mitogenic polypeptides concentrations in the samples were measured by ELISA. Various pharmacokinetics will be calculated as well as the absorption/elimination dynamics following different routes of administration.
# Sequence of rhIGFBP3 (P17936 28-291): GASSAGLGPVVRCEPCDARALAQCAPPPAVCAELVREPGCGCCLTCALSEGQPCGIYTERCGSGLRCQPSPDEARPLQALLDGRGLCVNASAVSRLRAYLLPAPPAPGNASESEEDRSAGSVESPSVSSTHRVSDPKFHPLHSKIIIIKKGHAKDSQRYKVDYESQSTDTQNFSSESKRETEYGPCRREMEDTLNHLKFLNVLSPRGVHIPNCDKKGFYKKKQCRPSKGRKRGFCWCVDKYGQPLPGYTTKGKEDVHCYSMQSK
compound,measurement,setting,value
"CCCC(=O)[O-].[Na+] [NaBut, sodium butyrate]",% eMyHC,"human myoblast cells [1]; NaBut 1 nM, 96 h (FIG. 3B)",2.321%
same,% eMyHC,"human myoblast cells [1]; NaBut 1 nM, after 48 hours (FIG. 4A)",2.321%
same,% eMyHC,"human myoblast cells [1]; NaBut 10 nM, 96 h (FIG. 3B)",6.199%
same,% eMyHC,"human myoblast cells [1]; NaBut 10 nM, after 48 hours (FIG. 4A)",6.199%
same,% eMyHC,"human myoblast cells [1]; NaBut 100 nM, 96 h (FIG. 3B)",8.341%
same,% eMyHC,"human myoblast cells [1]; NaBut 100 nM, after 48 hours (FIG. 4A)",8.341%
same,MYF5 myogenic gene expression fold change compared to FM (vehicle),DM1 human myoblast,1.128
same,MYODI myogenic gene expression fold change compared to FM (vehicle),DM1 human myoblast,1.095
same,MYOG myogenic gene expression fold change compared to FM (vehicle),DM1 human myoblast,1.020
same,Fusion Index (nuclei/myotube),Mouse myoblasts; NaBut 0.1 nM,8.44 nuclei/myotube
same,Fusion Index (nuclei/myotube),Mouse myoblasts; NaBut 1 nM,31.60 nuclei/myotube
same,Fusion Index (nuclei/myotube),"Mouse myoblasts; NaBut 1 nM, listed as sodium butyrate",increased rates of fusion
same,Fusion Index (nuclei/myotube),Mouse myoblasts; NaBut 10 nM,14.00 nuclei/myotube
"HSA-IGF2: His tagged HSA fusion IGF2 with a long linker, SEQ ID NO 33",cleavage of the amino acid backbone when expressed from CHO cells,[2],cleaved
same,% MyHC,"human myoblast cells [3]; FIG. 2A, Example 4",7.079%
"HSA-IGF2R61A: His tagged HSA fusion IGF2 R61A mutant with a long linker, SEQ ID NO: 34",myogenic activity relative to IGF2,[4]; equimolar concentrations across a range of concentrations,equal activity
same,myogenic activity relative to HSA-IGF2,"[4]; equimolar concentrations, before or after size exclusion purification via HPLC",equal or increased activity
same,interaction with rhIGFBP3 (mass shift in size exclusion chromatography),rhIGFBP3,preserved affinity
same,myogenic activity relative to IGF2,[5],equal activity
same,percentage area of MyHC compared with vehicle control,human myoblast cells [3],significantly higher
same,% MyHC,"human myoblast cells [3]; FIG. 2A, Example 4",6.914%
same,serum half-life compared to the natural sequence of IGF2,[6]; mice,significantly improved
same,Half-life,"[6]; mice 10-12 weeks old, dose 10 mg/kg (HSA-IGF2R61A), 600 ug/kg (IGF2), Non-Compartment Analysis",20.81 h
"IGF2-LhFc4: Human IGF2-linker3-hFc4 (human IgG4 Fc with S228P), SEQ ID NO 38",percentage area of MyHC compared with vehicle control,human myoblast cells [3],significantly higher
same,% MyHC,"human myoblast cells [3]; FIG. 1B, Example 3",6.237%
"IGF2-hFc4: Human IGF2-hFc4, SEQ ID NO 39",% MyHC,"human myoblast cells [3]; FIG. 1B, Example 3",6.901%
"hFc4L-IGF2: hFc4-linker3-human IGF2, SEQ ID NO 40",% MyHC,"human myoblast cells [3]; FIG. 1B, Example 3",5.820%
